Test results from ChEMBL document CHEMBL4699464, “Talascortenes A-G, Highly Oxygenated Diterpenoid Acids from the Sea-Anemone-Derived Endozoic Fungus Talaromyces scorteus AS-242” (2020).
Values after ≈ are worked out from the molar mass of the structure shown.

Tests used:
Type in all cases: functional
Fusarium oxysporum = assay: Antimicrobial activity against Fusarium oxysporum QDAU-8 by serial dilution technique
Vibrio harveyi = assay: Antimicrobial activity against Vibrio harveyi QDIO-7 by serial dilution technique
Micrococcus luteus = assay: Antimicrobial activity against Micrococcus luteus QDIO-3 by serial dilution technique
Vibrio parahaemolyticus = assay: Antimicrobial activity against Vibrio parahaemolyticus QDIO-8 by serial dilution technique
[1] = system: Colletotrichum gloeosporioides; assay: Antimicrobial activity against Colletotrichum gloeosporioides QDAU-2 by serial dilution technique
Edwardsiella tarda = assay: Antimicrobial activity against Edwardsiella tarda QDIO-9 by serial dilution technique
Aeromonas hydrophila = assay: Antimicrobial activity against Aeromonas hydrophila QDIO-1 by serial dilution technique
Pseudomonas aeruginosa = assay: Antimicrobial activity against Pseudomonas aeruginosa QDIO-4 by serial dilution technique
Escherichia coli = assay: Antimicrobial activity against Escherichia coli EMBLC-1 by serial dilution technique
Gaeumannomyces graminis = assay: Antimicrobial activity against Gaeumannomyces graminis QDAU-21 by serial dilution technique
Ceratobasidium cereale = assay: Antimicrobial activity against Rhizoctonia cerealis QDAU-20 by serial dilution technique

Compound: C=C[C@]1(C)CC[C@@]2(O)[C@](O)(CC[C@]3(O)[C@]2(C)CCC[C@]3(C)C(=O)O)C1
- MIC (Fusarium oxysporum): > 32 µg/mL
- MIC (Vibrio harveyi): > 32 µg/mL
- MIC (Micrococcus luteus): > 32 µg/mL
- MIC (Vibrio parahaemolyticus): > 32 µg/mL
- MIC [1]: > 32 µg/mL
- MIC (Edwardsiella tarda): > 32 µg/mL
- MIC (Aeromonas hydrophila): > 32 µg/mL
- MIC (Pseudomonas aeruginosa): > 32 µg/mL
- MIC (Escherichia coli): 8 µg/mL (≈ 22.7 µM)
- MIC (Gaeumannomyces graminis): > 32 µg/mL
- MIC (Ceratobasidium cereale): > 32 µg/mL

Compound: O=C(N[C@H](CO)[C@H](O)c1ccc([N+](=O)[O-])cc1)C(Cl)Cl [CHLORAMPHENICOL]
- MIC (Vibrio harveyi): 2 µg/mL (≈ 6.19 µM)
- MIC (Micrococcus luteus): 1 µg/mL (≈ 3.09 µM)
- MIC (Vibrio parahaemolyticus): 0.5 µg/mL (≈ 1.55 µM)
- MIC (Edwardsiella tarda): 0.5 µg/mL (≈ 1.55 µM)
- MIC (Aeromonas hydrophila): 4 µg/mL (≈ 12.4 µM)
- MIC (Pseudomonas aeruginosa): 2 µg/mL (≈ 6.19 µM)
- MIC (Escherichia coli): 1 µg/mL (≈ 3.09 µM)

Compound: C=C[C@]1(C)CCC2=C(CC[C@@]3(O)[C@@](C)(C(=O)O)[C@H](O)CC[C@]23C)[C@@H]1OC
- MIC (Fusarium oxysporum): > 32 µg/mL
- MIC (Vibrio harveyi): > 32 µg/mL
- MIC (Micrococcus luteus): > 32 µg/mL
- MIC (Vibrio parahaemolyticus): 8 µg/mL (≈ 21.9 µM)
- MIC [1]: > 32 µg/mL
- MIC (Edwardsiella tarda): > 32 µg/mL
- MIC (Aeromonas hydrophila): > 32 µg/mL
- MIC (Pseudomonas aeruginosa): 32 µg/mL (≈ 87.8 µM)
- MIC (Escherichia coli): > 32 µg/mL
- MIC (Gaeumannomyces graminis): > 32 µg/mL
- MIC (Ceratobasidium cereale): > 32 µg/mL

Compound: C=C1CC[C@]2(O)[C@](C)(CCC[C@]2(C)C(=O)O)[C@]1(O)CC/C(C)=C/CO
- MIC (Fusarium oxysporum): > 32 µg/mL
- MIC (Vibrio harveyi): > 32 µg/mL
- MIC (Micrococcus luteus): > 32 µg/mL
- MIC (Vibrio parahaemolyticus): 8 µg/mL (≈ 22.7 µM)
- MIC [1]: > 32 µg/mL
- MIC (Edwardsiella tarda): > 32 µg/mL
- MIC (Aeromonas hydrophila): > 32 µg/mL
- MIC (Pseudomonas aeruginosa): > 32 µg/mL
- MIC (Escherichia coli): > 32 µg/mL
- MIC (Gaeumannomyces graminis): > 32 µg/mL
- MIC (Ceratobasidium cereale): > 32 µg/mL

Compound: C=C[C@]1(C)CCC2=C(CC[C@]3(O)[C@@](C)(C(=O)O)CCC[C@]23C)[C@H]1O
- MIC (Fusarium oxysporum): > 32 µg/mL
- MIC (Vibrio harveyi): 8 µg/mL (≈ 23.9 µM)
- MIC (Micrococcus luteus): > 32 µg/mL
- MIC (Vibrio parahaemolyticus): > 32 µg/mL
- MIC [1]: > 32 µg/mL
- MIC (Edwardsiella tarda): > 32 µg/mL
- MIC (Aeromonas hydrophila): 16 µg/mL (≈ 47.8 µM)
- MIC (Pseudomonas aeruginosa): > 32 µg/mL
- MIC (Escherichia coli): 16 µg/mL (≈ 47.8 µM)
- MIC (Gaeumannomyces graminis): > 32 µg/mL
- MIC (Ceratobasidium cereale): > 32 µg/mL

Compound: C=C[C@H]1[C@@H]2CC[C@@]3(O)[C@@](C)(C(=O)O)[C@H](O)CC[C@]3(C)[C@H]2CC[C@@]1(O)CCl
- MIC (Fusarium oxysporum): > 32 µg/mL
- MIC (Vibrio harveyi): > 32 µg/mL
- MIC (Micrococcus luteus): 4 µg/mL (≈ 10.3 µM)
- MIC (Vibrio parahaemolyticus): 32 µg/mL (≈ 82.7 µM)
- MIC [1]: > 32 µg/mL
- MIC (Edwardsiella tarda): > 32 µg/mL
- MIC (Aeromonas hydrophila): > 32 µg/mL
- MIC (Pseudomonas aeruginosa): > 32 µg/mL
- MIC (Escherichia coli): > 32 µg/mL
- MIC (Gaeumannomyces graminis): > 32 µg/mL
- MIC (Ceratobasidium cereale): > 32 µg/mL

Compound: C[C@]1(O)C[C@]23CC[C@H]1C[C@@H]2[C@@]1(C)CCC[C@](C)(C(=O)O)[C@]1(O)CC3
- MIC (Fusarium oxysporum): 16 µg/mL (≈ 47.6 µM)
- MIC (Vibrio harveyi): > 32 µg/mL
- MIC (Micrococcus luteus): 2 µg/mL (≈ 5.94 µM)
- MIC (Vibrio parahaemolyticus): > 32 µg/mL
- MIC [1]: > 32 µg/mL
- MIC (Edwardsiella tarda): 16 µg/mL (≈ 47.6 µM)
- MIC (Aeromonas hydrophila): > 32 µg/mL
- MIC (Pseudomonas aeruginosa): 16 µg/mL (≈ 47.6 µM)
- MIC (Escherichia coli): 32 µg/mL (≈ 95.1 µM)
- MIC (Gaeumannomyces graminis): 4 µg/mL (≈ 11.9 µM)
- MIC (Ceratobasidium cereale): 8 µg/mL (≈ 23.8 µM)

Compound: C[C@@H]1[C@H](O)[C@@H](C)/C=C/C=C/C=C/C=C/C=C/C=C/C=C/[C@H](O[C@@H]2O[C@H](C)[C@@H](O)[C@H](N)[C@@H]2O)C[C@@H]2O[C@](O)(C[C@@H](O)C[C@@H](O)[C@H](O)CC[C@@H](O)C[C@@H](O)CC(=O)O[C@H]1C)C[C@H](O)[C@H]2C(=O)O [AMPHOTERICIN B]
- MIC (Fusarium oxysporum): 0.5 µg/mL (≈ 0.541 µM)
- MIC [1]: 2 µg/mL (≈ 2.16 µM)
- MIC (Gaeumannomyces graminis): 1 µg/mL (≈ 1.08 µM)
- MIC (Ceratobasidium cereale): 1 µg/mL (≈ 1.08 µM)

Compound: C=C[C@]1(C)CCC2=C(CC[C@@]3(O)[C@@](C)(C(=O)O)CCC[C@]23C)[C@H]1OC
- MIC (Fusarium oxysporum): > 32 µg/mL
- MIC (Vibrio harveyi): > 32 µg/mL
- MIC (Micrococcus luteus): 8 µg/mL (≈ 23 µM)
- MIC (Vibrio parahaemolyticus): > 32 µg/mL
- MIC [1]: 2 µg/mL (≈ 5.74 µM)
- MIC (Edwardsiella tarda): > 32 µg/mL
- MIC (Aeromonas hydrophila): > 32 µg/mL
- MIC (Pseudomonas aeruginosa): > 32 µg/mL
- MIC (Escherichia coli): 1 µg/mL (≈ 2.87 µM)
- MIC (Gaeumannomyces graminis): > 32 µg/mL
- MIC (Ceratobasidium cereale): > 32 µg/mL

Compound: C=C[C@]1(C)CCC2=C(CC[C@@]3(O)[C@@](C)(C(=O)O)[C@H](O)CC[C@]23C)[C@H]1O
- MIC (Fusarium oxysporum): > 32 µg/mL
- MIC (Vibrio harveyi): > 32 µg/mL
- MIC (Micrococcus luteus): > 32 µg/mL
- MIC (Vibrio parahaemolyticus): > 32 µg/mL
- MIC [1]: > 32 µg/mL
- MIC (Edwardsiella tarda): > 32 µg/mL
- MIC (Aeromonas hydrophila): > 32 µg/mL
- MIC (Pseudomonas aeruginosa): > 32 µg/mL
- MIC (Escherichia coli): 8 µg/mL (≈ 22.8 µM)
- MIC (Gaeumannomyces graminis): > 32 µg/mL
- MIC (Ceratobasidium cereale): > 32 µg/mL
